# Test results as given in ChEMBL document CHEMBL1201862, “PubChem BioAssay data set” (2004).
# Activity calls are given as the source filed them.
# Assays:
# [1] = target: T1, Short transient receptor potential channel 4 (Mus musculus, UniProt Q9QUQ5); assay: block of DAMGO-driven TRPC4 calcium entry – cell-based, HEK293 TRPC4/mu-opioid, Fluo-4 calcium, dose response (AID 434942); assay type: functional;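 note: potency of inhibitors blocking the TRPC4 calcium response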
# T1 sequence (Q9QUQ5 whole entry): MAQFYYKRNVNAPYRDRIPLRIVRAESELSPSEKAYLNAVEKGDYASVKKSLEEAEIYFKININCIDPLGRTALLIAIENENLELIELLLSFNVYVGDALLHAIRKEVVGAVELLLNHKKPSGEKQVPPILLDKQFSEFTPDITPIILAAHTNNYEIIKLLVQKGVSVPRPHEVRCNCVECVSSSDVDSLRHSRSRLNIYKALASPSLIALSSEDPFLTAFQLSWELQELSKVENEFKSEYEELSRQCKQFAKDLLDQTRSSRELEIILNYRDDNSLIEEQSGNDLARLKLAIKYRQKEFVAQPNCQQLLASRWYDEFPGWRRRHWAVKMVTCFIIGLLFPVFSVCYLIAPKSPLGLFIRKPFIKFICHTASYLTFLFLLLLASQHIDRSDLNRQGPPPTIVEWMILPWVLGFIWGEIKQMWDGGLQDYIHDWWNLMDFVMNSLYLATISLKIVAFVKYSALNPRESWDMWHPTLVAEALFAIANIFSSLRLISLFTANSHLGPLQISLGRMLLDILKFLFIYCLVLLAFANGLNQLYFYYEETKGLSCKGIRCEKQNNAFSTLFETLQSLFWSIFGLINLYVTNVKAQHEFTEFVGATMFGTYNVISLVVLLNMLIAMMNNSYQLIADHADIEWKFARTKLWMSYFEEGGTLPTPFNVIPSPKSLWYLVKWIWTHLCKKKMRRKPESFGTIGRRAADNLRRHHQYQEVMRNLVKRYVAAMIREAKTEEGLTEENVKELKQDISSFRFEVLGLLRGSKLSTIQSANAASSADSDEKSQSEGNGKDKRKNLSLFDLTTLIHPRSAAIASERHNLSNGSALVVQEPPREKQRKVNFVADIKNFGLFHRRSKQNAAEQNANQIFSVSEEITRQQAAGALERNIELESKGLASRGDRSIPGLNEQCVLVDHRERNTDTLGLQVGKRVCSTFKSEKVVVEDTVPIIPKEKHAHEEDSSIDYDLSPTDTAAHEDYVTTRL
# [2] = target: T1, Short transient receptor potential channel 4; assay: calcium entry via TRPC4 opening agents – cell-based, HEK293 TRPC4/mu-opioid, Fluo-4 calcium, dose response (AID 434937); assay type: functional
# [3] = target: T2, DNA repair protein RAD52 homolog (Homo sapiens, UniProt P43351); assay type: functional, biochemical
# T2 sequence (P43351 whole entry): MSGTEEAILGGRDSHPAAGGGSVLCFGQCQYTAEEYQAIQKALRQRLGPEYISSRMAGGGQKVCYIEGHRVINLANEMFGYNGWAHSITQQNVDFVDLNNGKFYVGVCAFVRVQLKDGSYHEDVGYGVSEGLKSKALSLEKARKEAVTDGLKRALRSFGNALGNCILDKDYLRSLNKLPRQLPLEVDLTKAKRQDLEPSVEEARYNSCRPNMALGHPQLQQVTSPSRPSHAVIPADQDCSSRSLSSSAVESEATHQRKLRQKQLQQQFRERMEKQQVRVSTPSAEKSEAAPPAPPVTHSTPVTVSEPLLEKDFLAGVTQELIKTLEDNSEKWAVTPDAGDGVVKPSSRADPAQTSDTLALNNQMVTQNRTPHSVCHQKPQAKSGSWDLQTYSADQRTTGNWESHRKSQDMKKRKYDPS
# [4] = A Cell Based Secondary Assay To Explore Cytotoxicity of Compounds that Sensitize Mycobacterium Tuberculosis to Beta-Lactam Antibiotics.; assay type: functional
# [5] = target: T3, Replicative DNA helicase DnaB (Mycobacterium tuberculosis, UniProt P9WMR3); assay: DnaB intein splicing inhibitors, dose response, biochemical, cell-free fluorescence (AID 449749); assay type: functional
# T3 sequence (P9WMR3 whole entry): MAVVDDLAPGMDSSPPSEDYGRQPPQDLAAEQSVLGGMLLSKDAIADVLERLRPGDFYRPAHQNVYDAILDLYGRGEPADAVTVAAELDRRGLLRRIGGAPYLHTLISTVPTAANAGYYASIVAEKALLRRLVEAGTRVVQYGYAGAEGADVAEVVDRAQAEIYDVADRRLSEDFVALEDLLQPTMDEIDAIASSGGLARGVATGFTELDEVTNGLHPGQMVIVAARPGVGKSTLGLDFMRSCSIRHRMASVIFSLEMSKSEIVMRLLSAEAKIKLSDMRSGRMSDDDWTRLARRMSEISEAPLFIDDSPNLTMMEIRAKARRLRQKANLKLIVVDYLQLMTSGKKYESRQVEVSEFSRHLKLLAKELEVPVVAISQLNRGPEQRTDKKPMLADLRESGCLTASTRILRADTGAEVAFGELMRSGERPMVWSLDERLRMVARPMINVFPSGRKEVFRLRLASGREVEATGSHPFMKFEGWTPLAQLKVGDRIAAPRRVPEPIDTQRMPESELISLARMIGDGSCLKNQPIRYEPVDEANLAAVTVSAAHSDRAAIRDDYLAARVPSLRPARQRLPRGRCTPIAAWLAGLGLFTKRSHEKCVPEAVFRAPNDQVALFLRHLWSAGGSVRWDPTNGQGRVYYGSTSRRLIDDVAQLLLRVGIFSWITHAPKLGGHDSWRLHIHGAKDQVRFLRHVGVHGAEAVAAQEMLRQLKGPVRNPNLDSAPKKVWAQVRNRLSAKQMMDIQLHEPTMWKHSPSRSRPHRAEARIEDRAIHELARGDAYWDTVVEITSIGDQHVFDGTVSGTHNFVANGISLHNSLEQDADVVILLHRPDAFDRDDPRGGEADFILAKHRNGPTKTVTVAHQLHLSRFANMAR
# Protein RecA = target: T4, Protein RecA (Mycobacterium tuberculosis, UniProt P9WHJ3); assay: Fluorescence Cell-Free Homogeneous Dose Retest to Identify Inhibitors of RecA-Intein Splicing Activity. [Related pubchem assays (depositor defined):AID2097, AID2223, AID489010, AID492950]; assay type: functional
# T4 sequence (P9WHJ3 whole entry): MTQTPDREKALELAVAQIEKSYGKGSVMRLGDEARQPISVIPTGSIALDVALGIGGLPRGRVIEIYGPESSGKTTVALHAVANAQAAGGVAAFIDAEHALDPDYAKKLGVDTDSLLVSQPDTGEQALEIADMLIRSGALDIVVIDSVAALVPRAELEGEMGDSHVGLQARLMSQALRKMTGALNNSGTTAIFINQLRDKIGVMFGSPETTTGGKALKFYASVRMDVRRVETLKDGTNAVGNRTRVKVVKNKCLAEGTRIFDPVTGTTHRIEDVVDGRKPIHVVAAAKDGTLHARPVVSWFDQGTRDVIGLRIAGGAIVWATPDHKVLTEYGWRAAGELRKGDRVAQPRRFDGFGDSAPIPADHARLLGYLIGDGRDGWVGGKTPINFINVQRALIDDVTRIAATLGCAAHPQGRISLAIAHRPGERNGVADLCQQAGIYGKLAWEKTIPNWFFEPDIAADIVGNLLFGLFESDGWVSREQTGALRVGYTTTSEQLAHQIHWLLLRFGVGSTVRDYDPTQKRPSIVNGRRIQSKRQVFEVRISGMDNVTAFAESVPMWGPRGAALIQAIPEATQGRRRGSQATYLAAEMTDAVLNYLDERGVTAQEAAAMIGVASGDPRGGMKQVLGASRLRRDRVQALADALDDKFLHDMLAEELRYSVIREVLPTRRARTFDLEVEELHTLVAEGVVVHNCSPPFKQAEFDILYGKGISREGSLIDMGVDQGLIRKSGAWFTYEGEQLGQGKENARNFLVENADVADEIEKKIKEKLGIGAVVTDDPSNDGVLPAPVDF
# Aminopeptidase N = target: T5, Aminopeptidase N (Plasmodium falciparum FcB1/Columbia, UniProt O96935); assay: malaria alanyl aminopeptidase activity blockers – biochemical, fluorogenic H-Leu-NHMec substrate, 1536-well (AID 1445); design: species or system Plasmodium falciparum 3D7, 3D7
# T5 sequence (O96935 whole entry): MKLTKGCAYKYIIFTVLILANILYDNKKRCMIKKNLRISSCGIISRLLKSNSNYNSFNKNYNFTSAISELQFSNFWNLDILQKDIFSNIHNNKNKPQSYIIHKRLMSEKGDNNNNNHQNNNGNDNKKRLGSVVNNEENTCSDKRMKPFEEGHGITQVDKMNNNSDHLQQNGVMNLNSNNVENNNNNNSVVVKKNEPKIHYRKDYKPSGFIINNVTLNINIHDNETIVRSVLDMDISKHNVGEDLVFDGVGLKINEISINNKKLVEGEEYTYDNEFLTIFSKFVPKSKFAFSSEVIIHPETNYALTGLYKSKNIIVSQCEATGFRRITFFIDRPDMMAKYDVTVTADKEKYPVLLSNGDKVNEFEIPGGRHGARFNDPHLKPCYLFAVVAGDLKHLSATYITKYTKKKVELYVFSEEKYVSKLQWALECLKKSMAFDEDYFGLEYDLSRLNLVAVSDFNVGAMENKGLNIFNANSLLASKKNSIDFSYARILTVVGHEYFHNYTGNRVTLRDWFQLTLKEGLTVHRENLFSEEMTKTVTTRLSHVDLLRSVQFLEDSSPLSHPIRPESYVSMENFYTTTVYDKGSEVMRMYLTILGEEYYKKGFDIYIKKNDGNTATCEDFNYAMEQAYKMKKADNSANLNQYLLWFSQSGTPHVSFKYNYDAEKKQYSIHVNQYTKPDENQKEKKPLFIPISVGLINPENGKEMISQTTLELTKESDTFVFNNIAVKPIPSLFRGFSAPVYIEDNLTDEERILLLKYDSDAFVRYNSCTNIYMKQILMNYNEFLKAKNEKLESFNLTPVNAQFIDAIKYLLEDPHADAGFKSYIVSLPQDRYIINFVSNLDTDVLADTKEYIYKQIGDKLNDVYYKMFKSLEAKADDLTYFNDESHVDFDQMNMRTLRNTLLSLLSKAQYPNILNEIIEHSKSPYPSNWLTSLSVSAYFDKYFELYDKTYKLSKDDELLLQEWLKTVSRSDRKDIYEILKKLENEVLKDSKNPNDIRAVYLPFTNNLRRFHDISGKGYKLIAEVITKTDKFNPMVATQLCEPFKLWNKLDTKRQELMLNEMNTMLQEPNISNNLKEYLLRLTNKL
# Protein skinhead-1 = target: T6, Protein skinhead-1 (Caenorhabditis elegans, UniProt P34707); assay type: functional
# T6 sequence (P34707 whole entry): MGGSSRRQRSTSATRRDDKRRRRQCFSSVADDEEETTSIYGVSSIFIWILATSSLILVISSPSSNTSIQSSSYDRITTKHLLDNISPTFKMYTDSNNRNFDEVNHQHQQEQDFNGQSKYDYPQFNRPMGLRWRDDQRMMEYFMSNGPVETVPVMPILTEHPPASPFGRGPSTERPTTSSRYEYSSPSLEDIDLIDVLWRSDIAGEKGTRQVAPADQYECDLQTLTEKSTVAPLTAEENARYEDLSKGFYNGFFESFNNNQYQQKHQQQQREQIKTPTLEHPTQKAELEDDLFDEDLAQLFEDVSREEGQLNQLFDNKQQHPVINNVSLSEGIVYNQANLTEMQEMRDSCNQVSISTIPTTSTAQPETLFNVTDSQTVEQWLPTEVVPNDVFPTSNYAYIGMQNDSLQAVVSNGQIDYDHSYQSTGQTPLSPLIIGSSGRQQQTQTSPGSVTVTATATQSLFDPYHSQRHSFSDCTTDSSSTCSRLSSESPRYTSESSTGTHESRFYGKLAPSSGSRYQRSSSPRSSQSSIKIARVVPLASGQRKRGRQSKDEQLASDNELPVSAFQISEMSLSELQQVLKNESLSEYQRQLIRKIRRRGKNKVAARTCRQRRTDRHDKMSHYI
# [6] = NIH-3T3 fibroblast cytotoxicity, dose response, cytotoxicity control, cell-based, fluorescence, Alamar Blue, secondary assay (AID 2327); assay type: functional;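 note: NIH-3T3 mouse fibroblasts cultured with fluconazole at 8 µg/mL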
# [7] = viability of uninfected HEp-2 cells – cell-based, HTS, cytotoxicity control for RSV inhibitor project, dose response (AID 2410); assay type: functional; settings: human respiratory syncytial virus
# [8] = system: Streptococcus sp. 'group A'; assay: Streptococcus pyogenes SK(-)GAS viability under kanamycin – luminescence, BacTiterGlo, confirmation, counter-screen for streptokinase expression inhibitor project, dose response (AID 1900); assay type: functional, organism-based
# cells [9] = assay type: functional, cell-based
# [10] = fluconazole-exposed Candida albicans growth modulators – fluorescence, retest, confirmation (AID 2467); assay type: functional, cell-based
# cells [11] = assay type: functional, cell-based; remark: listed apart in the source
# Streptococcus = assay: GAS UMAA2166 growth inhibition – luminescence, BacTiterGlo, counter-screen for streptokinase expression inhibitor project, dose response (AID 1915); assay type: functional, organism-based;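 note: potency for reduction of bacterial viability or growth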
smiles,measurement,setting,value
CCC(C)NC(C(=O)Nc1ccc(Cl)c([N+](=O)[O-])c1)c1ccccc1 (centres undefined),EC50,[1],7.5 µM (active)
Cc1ccc(O)c(Sc2cc(C)ccc2O)c1,EC50,[1],3.76 µM (active)
OC(CNC1CCCc2ccccc21)COc1ccc2ccccc2c1 (centres undefined),EC50,[2],5.96 µM (active)
Cc1ccc(-c2csc(N(CCCN(C)C)C(=O)c3ccco3)n2)cc1,EC50,[1],2.11 µM (active)
same,AC50,[3],11.7 µM (active)
Brc1ccc(CNc2ccc3ncccc3c2)cc1,CC50,[4],> 40 µM (active)
same,AC50,[5],> 380 µM (inactive)
same,EC50,Protein RecA,> 380 µM (inactive)
O=C(O)c1ccc(NC(S)=NC(NC(=O)c2ccco2)C(Cl)(Cl)Cl)cc1 (centres undefined),IC50,Aminopeptidase N,60.5 µM (active)
Cc1cc(=O)oc2cc3c(cc12)OCCN3,IC50,Aminopeptidase N,32.8 µM (active)
O=C(NC1CCN(Cc2ccccc2)CC1)C12CC3CC(CC(C3)C1)C2,EC50,[2],1.5 µM (active)
C[C@H](NC(=O)c1[nH]cnc1C(=O)Nc1ccc(Cl)cc1)C(=O)OC(C)(C)C,CC50,[4],16.7 µM (active)
same,IC50,Protein skinhead-1,> 100 µM (inactive)
Cc1c(O)c(CN2CCCC2)cc2c3c(c(=O)oc12)CCC3,IC50,Aminopeptidase N,42.6 µM (active)
COC(=O)Cc1c(C)c2ccc(O)c(CN3CCCC(C)C3)c2oc1=O (centres undefined),IC50,Aminopeptidase N,30 µM (active)
O=Cc1cc(N=Nc2ccccc2Cl)ccc1O,EC50,[6],> 160 µM (inactive)
same,CC50,[7],7.07 µM (active)
same,EC50,[8],5.05 µM (active)
same,EC50,cells [9],198 µM (active)
same,EC50,[10],> 38 µM (not active)
same,EC50,cells [11],> 350 µM (not active)
same,EC50,Streptococcus,6.24 µM (active)
same,EC50,[1],15 µM (active)
COc1ccc(-n2nc(C(=O)NCC(=O)NCCCN3CC(C)CC(C)C3)c3ccccc3c2=O)cc1Cl (centres undefined),EC50,[2],1.5 µM (active)
